Reference: US20170150719A1, “FUNGICIDAL PYRAZOLES AND THEIR MIXTURES” (E I DU PONT DE NEMOURS AND COMPANY, priority 2010, published 2017)
Marks after values point to notes of the source that are not given here.

Legend:
[1] = tested on: Septoria nodorum; experiment: Test E: Septoria glume blotch, preventive spray on wheat seedlings, visual disease rating; details: 100 = 100% disease control; for pest or weed control at 200 µg/mL: Parastagonospora nodorum, in Triticum aestivum, read-out: Test E rating (disease control), Septoria glume blotch; for pest or weed control at 200 µg/mL / Test E rating (disease control): 0 = no disease control relative to the controls; for Test E rating (% disease control): Septoria glume blotch on wheat, preventive spray, rating without asterisk; for Test E rating (disease control): Septoria glume blotch
[2] = tested on: Septoria tritici; experiment: Test F: wheat leaf blotch, preventive spray on wheat seedlings, visual disease rating; type: in vivo; design: Test F rating (disease control), value marked *: concentration or dose not given beside the values; details: for pest or weed control at 200 µg/mL: Zymoseptoria tritici; for pest or weed control at 200 µg/mL / Test F rating (% disease control) / Test F rating (disease control): 100 = 100% disease control; for pest or weed control at 200 µg/mL / Test F rating (disease control): 0 = no disease control relative to the controls; for Test F rating (% disease control): preventive spray, rating without asterisk; for Test F rating (disease control), value marked *: rating marked with asterisk (*), other test condition, not explained in the text shown
From the text: (§1) A hyphen (-) indicates no test results.

[3] = tested on: Alternaria solani; experiment: Test B: tomato early blight, preventive spray on tomato seedlings, visual disease rating; details: for pest or weed control at 200 µg/mL: Alternaria solani, in Solanum lycopersicum, read-out: Test B rating (disease control); for Test B rating (% disease control) / Test B rating (disease control): tomato early blight, 100 = 100% disease control; for Test B rating (% disease control): preventive spray, rating without asterisk; for Test B rating (disease control): 0 = no disease control relative to the controls
[4] = tested on: Blumeria graminis f. sp. tritici; experiment: Test I: wheat powdery mildew, preventive spray on wheat seedlings, visual disease rating; details: 100 = 100% disease control; for pest or weed control at 200 µg/mL: Blumeria graminis, in Triticum aestivum, read-out: Test I rating (disease control), wheat powdery mildew; for pest or weed control at 200 µg/mL / Test I rating (disease control): 0 = no disease control relative to the controls; for Test I rating (% disease control) / Test I rating (disease control): wheat powdery mildew; for Test I rating (% disease control): preventive spray, rating without asterisk
Experimental: General protocol for preparing test suspensions for Tests A-I: the test compounds were first dissolved in acetone in an amount equal to 3% of the final volume and then suspended at the desired concentration (in ppm) in acetone and purified water (50/50 mix by volume) containing 250 ppm of the surfactant Trem® 014 (polyhydric alcohol esters). The resulting test suspensions were then used in Tests A-I. Each test was conducted in triplicate, and the results were averaged. Spraying a 200 ppm test suspension to the point of run-off on the test plants was the equivalent of a rate of about 800 g/ha. Unless otherwise indicated, the rating values indicate a 200 ppm test suspension was used. (An asterisk “*” next to the rating value indicates a 40 ppm test suspension was used.)
The test suspension was sprayed to the point of run-off on wheat seedlings. The following day the seedlings were inoculated with a spore dust of Blumeria graminis f. sp. tritici (also known as Erysiphe graminis f. sp. tritici, the causal agent of wheat powdery mildew) and incubated in a growth chamber at 20° C. for 8 days, after which time visual disease ratings were made.

[5] = tested on: Botrytis cinerea; experiment: Test A: tomato Botrytis, preventive spray on tomato seedlings, visual disease rating; details: 100 = 100% disease control; for pest or weed control at 200 µg/mL: Botrytis cinerea, in Solanum lycopersicum, read-out: Test A rating (disease control), tomato Botrytis; for pest or weed control at 200 µg/mL / Test A rating (disease control): 0 = no disease control relative to the controls; for Test A rating (% disease control) / Test A rating (disease control): tomato Botrytis; for Test A rating (% disease control): preventive spray, 0 = no control relative to controls, rating without asterisk
[6] = tested on: Puccinia recondita f. sp. tritici; experiment: Test G: wheat leaf rust, spray after inoculation (curative) on wheat seedlings, visual disease rating; type: in vivo; details: 100 = 100% disease control; for pest or weed control at 200 µg/mL / Test G rating (disease control): sprayed after inoculation, 0 = no disease control; for Test G rating (% disease control): spray after inoculation, rating without asterisk
From the text: as §1

[7] = tested on: Puccinia recondita f. sp. tritici; experiment: Test H: wheat leaf rust, preventive spray on wheat seedlings, visual disease rating; details: 100 = 100% disease control; for pest or weed control at 200 µg/mL: read-out: Test H rating (disease control), wheat leaf rust, sprayed the day before inoculation; for pest or weed control at 200 µg/mL / Test H rating (disease control): 0 = no disease control; for Test H rating (% disease control) / Test H rating (disease control): wheat leaf rust; for Test H rating (% disease control): preventive spray, rating without asterisk; for Test H rating (disease control): sprayed the day before inoculation

SMILES | Test E rating (disease control) [1] [%] | Test F rating (disease control) [2] [%] | Test B rating (disease control) [3] [%] | Test I rating (disease control) [4] [%] | Test A rating (disease control) [5] [%] | Test G rating (disease control) [6] [%] | Test H rating (disease control) [7] [%] | also measured
Cc1nn(C)c(Nc2c(Cl)cc(F)cc2Cl)c1-c1ccc(F)cc1F [Compound 137, N-(2,6-dichloro-4-fluorophenyl)-4-(2,4-difluorophenyl)-1,3-dimethyl-1H-pyrazol-5-amine] |  |  |  |  |  |  |  | pest or weed control at 200 µg/mL [1]: 87%; pest or weed control at 200 µg/mL [2]: 100%; pest or weed control at 200 µg/mL [3]: 95%; pest or weed control at 200 µg/mL [4]: 100%; pest or weed control at 200 µg/mL [5]: 100%; pest or weed control at 200 µg/mL [6]: 87%; pest or weed control at 200 µg/mL [7]: 99%
Cc1nn(C)c(Nc2c(F)cc(Cl)cc2F)c1-c1ccc(F)cc1I [compound 225] |  |  |  |  |  |  |  | Test E rating (% disease control) [1]: 0%; Test F rating (% disease control) [2]: 100%; Test B rating (% disease control) [3]: 68%; Test I rating (% disease control) [4]: 100%; Test A rating (% disease control) [5]: 99%; Test G rating (% disease control) [6]: 0%; Test H rating (% disease control) [7]: 99%
Cc1nn(C)c(Nc2ccc(F)cc2Cl)c1-c1ccc(Cl)cc1Cl [compound 125] | 0 | 100 | 0 | 100 | 99 | 82 | 98 | 
Cc1nn(C)c(Nc2ccc(F)cc2Cl)c1-c1c(Cl)cccc1Cl [compound 109] | 0 | 100 | 0 | 100 | 100 | 0 | 97 | 
Cc1nn(C)c(Nc2ccc(F)cc2F)c1-c1c(F)cc(C#N)cc1F [compound 30] | 90 | 100 | 99 | 100 | 100 | 82 | 99 | 
COc1cc(F)c(Nc2c(-c3c(F)cccc3Cl)c(C)nn2C)c(F)c1 [compound 55] | 80 | 100 | 99 | 99 | 99 | 94 | 100 | 
Cc1nn(C)c(Nc2ccc(F)cc2I)c1-c1ccc(F)cc1F [compound 175] | 73 | 100 | 97 | 100 | 100 | 41 | 100 | 
COc1ccc(-c2c(C)nn(C)c2Nc2ccc(F)cc2F)c(Cl)c1 [compound 42] | 0 | 99 | 99 | 100 | 98 | 8 | 100 | 
COc1ccc(-c2c(C)nn(C)c2Nc2c(F)cc(Cl)cc2F)c(Cl)c1 [compound 204] |  |  |  |  |  |  |  | Test E rating (% disease control) [1]: 99%; Test F rating (% disease control) [2]: 100%; Test B rating (% disease control) [3]: 99%; Test I rating (% disease control) [4]: 100%; Test A rating (% disease control) [5]: 99%; Test G rating (% disease control) [6]: 99%; Test H rating (% disease control) [7]: 100%
COc1cc(F)c(-c2c(C)nn(C)c2Oc2ccc(Cl)cc2Cl)c(F)c1 [compound 10] | 0 | 94 | 0 | 99 | 99 | 92 | 99 | 
COc1ccc(Nc2c(-c3c(F)cccc3F)c(C)nn2C)c(F)c1 [compound 51] | 0 | 98 | 99 | 100 | 100 | 0 | 68 | 
Cc1nn(C)c(Nc2c(F)cc(Cl)cc2Cl)c1-c1ccc(Cl)cc1F [compound 231] |  |  |  |  |  |  |  | Test E rating (% disease control) [1]: 0%; Test F rating (% disease control) [2]: 100%; Test B rating (% disease control) [3]: 58%; Test I rating (% disease control) [4]: 99%; Test A rating (% disease control) [5]: 33%; Test G rating (% disease control) [6]: 9%; Test H rating (% disease control) [7]: 94%
COc1ccc(-c2c(C)nn(C)c2Nc2ccc(Cl)cc2Cl)c(Cl)c1 [compound 77] | 0 |  | 98 | 100 | 99 | 0 | 99 | Test F rating (disease control), value marked * [2]: 99* %
Cc1nn(C)c(Oc2c(F)cc(C#N)cc2F)c1-c1ccccc1Cl [compound 75] | 99 | 100 | 99 | 98 | 100 | 0 | 99 | 
Cc1nn(C)c(Nc2ccc(F)cc2Cl)c1-c1ccc(C#N)cc1Cl [compound 112] | 40 | 100 | 37 | 99 | 100 | 8 | 100 | 
Cc1nn(C)c(Oc2ccc(C#N)cc2F)c1-c1ccc(F)cc1Br [Compound 79, 4-[[4-(2-bromo-4-fluorophenyl)-1,3-dimethyl-1H-pyrazol-5-yl]oxy]-3-fluorobenzonitrile] |  |  |  |  |  |  |  | pest or weed control at 200 µg/mL [1]: 100%; Test F rating (disease control), value marked * [2]: 100* %; pest or weed control at 200 µg/mL [3]: 99%; pest or weed control at 200 µg/mL [4]: 100%; pest or weed control at 200 µg/mL [5]: 99%; pest or weed control at 200 µg/mL [6]: 28%; pest or weed control at 200 µg/mL [7]: 100%
Cc1nn(C)c(Oc2ccc(C#N)cc2F)c1-c1c(F)cccc1Cl [compound 116] | 99 | 100 | 33 | 100 | 100 | 0 | 100 | 
COc1ccc(-c2c(C)nn(C)c2Nc2c(F)cccc2F)c(Cl)c1 [compound 43] | 0 | 100 | 100 | 98 | 98 | 95 | 100 | 
COc1cc(F)c(Nc2c(-c3ccc(F)cc3Cl)c(C)nn2C)c(F)c1 [Compound 3, 4-(2-chloro-4-fluorophenyl)-N-(2,6-difluoro-4-methoxyphenyl)-1,3-dimethyl-1H-pyrazol-5-amine] |  |  |  |  |  |  |  | pest or weed control at 200 µg/mL [1]: 93%; pest or weed control at 200 µg/mL [2]: 97%; pest or weed control at 200 µg/mL [3]: 100%; pest or weed control at 200 µg/mL [4]: 100%; pest or weed control at 200 µg/mL [5]: 100%; pest or weed control at 200 µg/mL [6]: 96%; pest or weed control at 200 µg/mL [7]: 100%
Cc1nn(C)c(Nc2c(F)cc(Cl)cc2Cl)c1-c1ccc(F)cc1I [compound 222] |  |  |  |  |  |  |  | Test E rating (% disease control) [1]: 0%; Test F rating (% disease control) [2]: 100%; Test B rating (% disease control) [3]: 77%; Test I rating (% disease control) [4]: 96%; Test A rating (% disease control) [5]: 98%; Test G rating (% disease control) [6]: 0%; Test H rating (% disease control) [7]: 90%
Cc1nn(C)c(Nc2c(Cl)cc(F)cc2Br)c1-c1ccc(F)cc1F [compound 120] | 94 | 100 | 80 | 100 | 100 | 19 | 100 | 
